Like-named read-outs stand apart in the source and are kept apart here.
Key:
[1] = target: T1, VHL (Homo sapiens, UniProt P40337); assay: NanoBRET lytic and live cell target engagement assay; format: binding
T1 construct: host or cells: HEK293, transient
Experimental: CRBN (N2910, Promega) and VHL (N2930, Promega) NanoBRET target engagement assays were performed according to manufacturer’s instructions. Transfection complexes were prepared using 1 mL Opti-MEM, 30 μL FuGENE HD, and either 9 μg/mL DDB1 Expression Vector and 1 μg/mL NanoLuc-CRBN fusion vector, or 9 μg/mL Transfection Carrier DNA and 1 μg/mL VHL-NanoLuc fusion vector. Transfection complexes were allowed to form for 20 min at room temperature, then were added to 20 mL of HEK293 cells at density of 200,000 cells/mL. Transfected HEK293 cells were plated in a T75 flask and allowed to express protein overnight. The next day, 85 μL of transfected cells (at 200,000 cells/mL) were replated in white nonbinding 96-well plates for live and lytic target engagement measurements. For live mode, a 100x solution of NanoBRET tracer was prepared using 100% DMSO (50 μM for CRBN live-cell, 100 μM for VHL live-cell). 100x tracer was used to prepare 20× tracer using tracer dilution buffer. PROTACs or test compounds were prepared at 10x final concentrations in Opti-MEM. Five μL of the prepared tracer was then dispensed to each well and the plate was mixed on an orbital shaker at 300 rpm for 15 s. Ten μL of each 10x PROTAC dilution was added to the cells and the plate was mixed again before being incubated at a 37 °C, 5% CO2 incubator for 2 or 5 h (as indicated in each figure). After incubation, a 50 μL of a 3X substrate solution (containing 30 μL NanoBRET Nano-Glo Substrate, 10 μL Extracellular NanoLuc inhibitor, and 4960 μL of Opti-MEM) was added to each well. Plates were incubated for 2–3 min at room temperature, then donor emission (450 nm) and acceptor emission (at 610 nm) values were read using a GloMax Discover. For lytic mode, the following changes were made. 100x tracer concentration for CRBN was 13 μM, 100X tracer concentration for VHL was 25 μM, 75 μL of a 200,000 cell/mL solution was plated in white nonbinding 96-well plates, and 10 μL of a 10x digitonin solution was added immediately after the cells were treated with PROTACs. Plates were incubated in darkness for 5 min after digitonin addition to allow for permeabilization. 50 μL of 3X substrate (30 μL NanoBRET Nano-Glo substrate and 4970 μL Opti-MEM) was added to each well and plates were incubated for 1 min at room temperature before being read on a GloMax Discover as above.

[2] = target: BRD4 (Homo sapiens, UniProt O60885); assay: NanoBRET ubiquitination assay; format: cell-based; conditions: parental vs CRBN KO or VHL KO HiBiT-BRD4 cells, HaloTag-Ubiquitin, 12 nM to 3 μM, 4 h
Experimental: NanoBRET ubiquitination experiments were conducted using Promega kit ND2690. HEK293 HiBiT-BRD4 parental, VHL KO, or CRBN KO cells (all stably expressing LgBiT) were plated in 6-well plates at 800,000 cells/well and allowed to adhere for 4–6 h prior to being transfected with 2 μg of HaloTag-Ubiquitin Fusion Vector. Cells were allowed to express overnight, then were trypsinized and resuspended in Opti-MEM (reduced serum, no phenol red) 4% FBS at a concentration of 220,000 cells/mL. HaloTag NanoBRET 618 ligand was added at a final concentration of 100 nM to cells (with a portion of cells retained without ligand for use as no-acceptor controls for normalization). 90 μL of cells were then dispensed into each well of a tissue culture 96-well plate and cells were allowed to adhere overnight. The next day, media was aspirated from cells and replaced with 90 μL of a 1× solution of Opti-MEM 4% FBS containing a 1:100 dilution of Nano-Glo Vivazine substrate. […] 10 μL of each 10 × PROTAC was added to each well and the plate was immediately placed in a ClarioStar plate reader (prewarmed to 37 °C) where donor emission (460 nm) and acceptor emission (618 nm) was collected every 3 min for 4 h. NanoBRET ratios were calculated as described in the ternary complex assay.

[3] = target: T1, VHL; assay: Western blot dose-response degradation in HEK293 cells; format: cell-based; conditions: 1 μM to 100 pM, 6 h
How it was run: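 HEK293 cells treated 6 h at 37 °C with compound over 1 μM to 100 pM alongside vehicle control; lysates in RIPA immunoblotted with target antibodies, tubulin as loading control, fluorescent detection. Band intensities fitted by linear regression to give pDC50; SD for two independent repeats, SEM for three.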

[4] = HEK293 cells with NanoLuc-VHL, VHL fluorescent tracer, live cells 2 h, read-out: IC50 (Live Cell), Target: VHL
[5] = HEK293 cells with NanoLuc-VHL, VHL fluorescent tracer, lysed with digitonin, read-out: IC50 (Lytic Cell), Target: VHL
[6] = displacement of VHL tracer, live cell format, read-out: IC50 VHL, live cell format

T1 sequence (P40337 whole entry): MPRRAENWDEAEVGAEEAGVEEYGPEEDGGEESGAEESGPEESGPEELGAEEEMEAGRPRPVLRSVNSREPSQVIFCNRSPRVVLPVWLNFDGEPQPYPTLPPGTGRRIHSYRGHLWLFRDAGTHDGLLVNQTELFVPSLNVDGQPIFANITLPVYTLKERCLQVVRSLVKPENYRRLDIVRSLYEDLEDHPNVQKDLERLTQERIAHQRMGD

Structure (SMILES)	IC50 [1, 4] [µM]	IC50 [1, 5] [µM]	IC50 [1, 6] [µM]	IC50 ([1]; displacement of VHL tracer, lytic format, read-out: IC50 VHL, lytic format) [µM]	fold weaker at engaging VHL in live cell format than in lytic format ([1]; live vs lytic) [fold]	fold stronger binding to VHL with respect to 26, live cell format ([1]; 27 vs 26) [fold]	ubiquitination of BRD4 (in words) [2]	VHL degradation (in words) [3]
Cc1ncsc1-c1ccc(CNC(=O)[C@@H]2C[C@@H](O)CN2C(=O)[C@@H](NC(=O)COCC(C)(COCCOCCOCCNc2cc3c(cc2F)C(=O)N(C2CCC(=O)NC2=O)C3=O)COCCOCCOCCOC(=O)C[C@@H]2N=C(c3ccc(Cl)cc3)c3c(sc(C)c3C)-n3c(C)nnc32)C(C)(C)C)cc1 (mixture of isomers) [AB3063 (26), (17S)-11-((2-(2-(2-((2-(2,6-dioxopiperidin-3-yl)-6-fluoro-1,3-dioxoisoindolin-5-yl)amino)ethoxy)ethoxy)ethoxy)methyl)-17-((2S,4R)-4-hydroxy-2-((4-(4-methylthiazol-5-yl)benzyl)carbamoyl)pyrrolidine-1-carbonyl)-11,18,18-trimethyl-15-oxo-3,6,9,13-tetraoxa-16-azanonadecyl 2-((S)-4-(4-chlorophenyl)-2,3,9-trimethyl-6H-thieno[3,2-f][1,2,4]triazolo[4,3-a][1,4]diazepin-6-yl)acetate]	> 10	1.82	2.3	1.82	> 5.5	–	–	–
Cc1ncsc1-c1ccc([C@H](C)NC(=O)[C@@H]2C[C@@H](O)CN2C(=O)[C@@H](NC(=O)COCC(C)(COCCOCCOCCNc2cc3c(cc2F)C(=O)N(C2CCC(=O)NC2=O)C3=O)COCCOCCOCCOC(=O)C[C@@H]2N=C(c3ccc(Cl)cc3)c3c(sc(C)c3C)-n3c(C)nnc32)C(C)(C)C)cc1 (mixture of isomers) [AB3067 (27), (17S)-11-((2-(2-(2-((2-(2,6-dioxopiperidin-3-yl)-6-fluoro-1,3-dioxoisoindolin-5-yl)amino)ethoxy)ethoxy)ethoxy)methyl)-17-((2S,4R)-4-hydroxy-2-(((S)-1-(4-(4-methylthiazol-5-yl)phenyl)ethyl)carbamoyl)pyrrolidine-1-carbonyl)-11,18,18-trimethyl-15-oxo-3,6,9,13-tetraoxa-16-azanonadecyl 2-((S)-4-(4-chlorophenyl)-2,3,9-trimethyl-6H-thieno[3,2-f][1,2,4]triazolo[4,3-a][1,4]diazepin-6-yl)acetate]	2.28	0.559	> 10	–	–	> 4.4	occurs more rapidly than in either the CRBN KO or VHL KO cells	–
Cc1ncsc1-c1ccc(CNC(=O)[C@@H]2C[C@@H](O)CN2C(=O)[C@@H](NC(=O)COCC(COCCOCCOCCNc2cc3c(cc2F)C(=O)N(C2CCC(=O)NC2=O)C3=O)(COCCOCCOCCOC(=O)C[C@@H]2N=C(c3ccc(Cl)cc3)c3c(sc(C)c3C)-n3c(C)nnc32)COCCOCCOCCOC(=O)C[C@@H]2N=C(c3ccc(Cl)cc3)c3c(sc(C)c3C)-n3c(C)nnc32)C(C)(C)C)cc1 (mixture of isomers) [AB3124 (86)]	–	–	–	–	–	–	–	no observed degradation of VHL

Reference: PMC11638965, “Leveraging Dual-Ligase Recruitment to Enhance Protein Degradation via a Heterotrivalent Proteolysis Targeting Chimera” (Journal of the American Chemical Society, 2024)
